Values joined by “and” are separate entries in the source; they are usually repeats but may differ in a detail not shown here. Identical values can stand only once.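 Interpolation was linear, between the two tested concentrations surrounding the appropriate level; five concentrations were tested over 48 hours in 96-well plates. GI50: concentration for 50% inhibition of growth. TGI denotes the concentration required for complete inhibition of growth.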
Experiments:
Assay in all cases: NCI anticancer screen, dose series, 48 h
OVCAR-8 ovarian = test system: OVCAR-8 ovarian
SNB-75 CNS = test system: SNB-75 CNS
HS 578T breast = test system: HS 578T breast
M14 melanoma = test system: M14 melanoma
EKVX NSCLC = test system: EKVX NSCLC
MOLT-4 leukemia = test system: MOLT-4 leukemia
SK-MEL-5 melanoma = test system: SK-MEL-5 melanoma
UACC-257 melanoma = test system: UACC-257 melanoma
K-562 leukemia = test system: K-562 leukemia
MALME-3M melanoma = test system: MALME-3M melanoma

Structure (SMILES) | TGI (OVCAR-8 ovarian) | TGI (SNB-75 CNS) | TGI (HS 578T breast) | TGI (M14 melanoma) | TGI (EKVX NSCLC) | TGI (MOLT-4 leukemia) | TGI (SK-MEL-5 melanoma) | TGI (UACC-257 melanoma) | TGI (K-562 leukemia) | TGI (MALME-3M melanoma) | GI50 (SNB-75 CNS) | GI50 (MOLT-4 leukemia) | GI50 (UACC-257 melanoma) | GI50 (K-562 leukemia)
CCCCCCCCCCCCCCCCOC[C@H](COC(c1ccccc1)(c1ccccc1)c1ccccc1)O[P+](=S)OC (stereo partly drawn) | > 100 µM | > 100 µM | > 100 µM | > 100 µM | > 100 µM | > 100 µM | > 100 µM | > 100 µM | > 100 µM |  |  |  |  | 
CCOC(=O)CC1(N)CC2c3ccccc3OC(=O)C2C(=O)N1 (stereo not drawn) | > 100 µM | > 100 µM | > 100 µM | > 100 µM | > 100 µM | > 100 µM |  | > 100 µM | > 100 µM | > 100 µM |  |  |  | 
FC(F)(Sc1ncccn1)c1nc2ccccc2o1 | > 100 µM | 81.2 µM |  | > 100 µM |  | > 100 µM | > 100 µM | > 100 µM | > 100 µM | > 100 µM |  |  |  | 
C=C(C)C1CCC2(C)C1CCC1(C)C2CCC2C3(C)C4OC(OC4=O)C(C)(C)C3CCC21C (stereo not drawn) | > 100 µM | > 100 µM | > 100 µM | > 100 µM | > 100 µM | > 100 µM | > 100 µM | > 100 µM | > 100 µM |  |  |  |  | 
c1csc(-c2cc(-c3ccsc3)cs2)c1 |  | > 100 µM | > 100 µM | > 100 µM | > 100 µM | > 100 µM | > 100 µM | > 100 µM | > 100 µM |  |  |  |  | 
CC1(O)CC2C(CC1SCc1ccccc1)C2(C)C (stereo not drawn) | > 100 µM and 30.9 µM | 92.4 µM and 28.6 µM |  | 87.2 µM and 28.9 µM | 77.3 µM and 31.7 µM | 25.1 µM and 47.7 µM | 40.4 µM and 25.8 µM | 59.5 µM and 24.7 µM | > 100 µM and 32.1 µM | 44.1 µM and 30.4 µM | 33.8 µM and 15.3 µM | 4.09 µM and 18.4 µM | 26.2 µM and 12 µM | 33.3 µM and 12.3 µM
Nc1ccc2c3c1cccc3c(=O)n1c3ccc(Cc4ccc5c(c4)nc4c6ccc(N)c7cccc(c(=O)n54)c76)cc3nc21 | > 100 µM | > 100 µM |  | > 100 µM | > 100 µM | > 100 µM | > 100 µM | > 100 µM | > 100 µM | > 100 µM |  |  |  | 
COc1ccc(Nc2nc(N)c(C(=O)c3ccco3)s2)cc1 | > 100 µM |  | > 100 µM | > 100 µM | > 100 µM | > 55.7 µM | 99.7 µM | > 100 µM | > 100 µM | > 100 µM |  |  |  | 
N#CC(C#N)=C/C=C/c1ccccc1[N+](=O)[O-] | 3.75 µM | > 10 µM | > 10 µM |  | > 10 µM | > 10 µM | > 10 µM | > 10 µM | > 10 µM | > 10 µM |  |  |  | 
O=C(CN1CCCC1)Nc1ccc2c(c1)C1Oc3ccccc3CC1CO2 (stereo not drawn) | > 100 µM |  |  | 36.4 µM | > 100 µM | > 100 µM | 28.2 µM | 44.3 µM | > 100 µM | 33.4 µM |  |  |  | 
CN1CCN(Cc2ccc(C(=S)Nc3ccccc3)s2)CC1 | > 100 µM |  | > 100 µM | 31.9 µM | > 100 µM | > 100 µM | 34.1 µM | > 100 µM | 95.9 µM | > 100 µM |  |  |  | 
CC1(c2ccc(Cl)cc2)c2ccccc2C(=O)N1CCCN1C(=O)c2ccccc2C1=O (stereo not drawn) | > 100 µM | > 100 µM | > 100 µM |  | 7.25 µM | > 100 µM | 31 µM | > 100 µM | > 100 µM |  |  |  |  | 
Cc1cc(C)n(C(C)(C(=O)Cc2ccccc2)n2nc(C)cc2C)n1 | > 100 µM |  | > 100 µM | > 100 µM | > 100 µM | > 100 µM | > 100 µM |  | > 100 µM | > 100 µM |  |  |  | 
CC(C)(C)C(=O)C(N)C(=O)C(C)(C)C | > 100 µM | > 100 µM | > 100 µM | > 100 µM |  | > 100 µM | > 100 µM | > 100 µM | > 100 µM | > 100 µM |  |  |  | 
Cc1cc(C)c(C2=NO[C@@H]3[C@H]2C(=O)C=C2N(Cc4ccccc4)CCO[C@@]23O)c(C)c1 | > 100 µM | > 100 µM |  |  | > 100 µM | > 100 µM | > 100 µM | > 100 µM | > 100 µM | > 100 µM |  |  |  | 
COc1cc(-c2cc(OC)c(OC)c3ccc(Br)cc23)c2cc(Br)ccc2c1OC |  |  | 94.4 µM | 44.7 µM | > 100 µM | > 100 µM | > 100 µM | 92.1 µM | 77.8 µM | 52.9 µM |  |  |  | 
Cc1cn([C@H]2CN(O)C[C@@H](CO)O2)c(=O)[nH]c1=O | > 100 µM | > 100 µM | > 100 µM | > 100 µM | > 100 µM | > 100 µM | > 100 µM | > 100 µM | > 100 µM |  |  |  |  | 
CCn1c(-c2cc3ccccc3cc2OC(C)=O)n[nH]c1=S | > 100 µM |  | 54.6 µM | > 100 µM | 57.9 µM | 51.3 µM | 38.2 µM | 62.6 µM | 33.1 µM |  |  |  |  | 

— PubChem BioAssay (NCI)
